Measured values published in patent US20230365627A1, “MACROCYCLIC PEPTIDE BORONATE IMMUNOMODULATORS” (Bristol-Myers Squibb Company, priority 2020, published 2023).
*1 amine or outer side, *2 acyl side, *3 side chain or, on linkers, in order; H or OH if unused. Where a SMILES comes first, the peptide text is derived from it. Bridges are numbered along the chain shown (N, C = ends). [ ]: non-standard residue; d: D form. X16 = O=C([C@H](CN(Cc1cccc(B(O)O[*:3])c1)Cc1cccc2ccc3ccccc3c12)N[*:1])[*:2]; Trp(1-CH2CO) = O=C([C@H](Cc1cn(CC(=O)[*:3])c2ccccc12)N[*:1])[*:2]; X7 = O=C([C@H](CNCc1cc(B(O)O[*:3])ccc1OCc1ccccc1)N[*:1])[*:2]; X22 = O=C([C@H](CNCc1c(B(O)O[*:3])ccc(Cl)c1F)N[*:1])[*:2]; X21 = Cc1ccc(B(O)O[*:3])c(CNC[C@H](N[*:1])C(=O)[*:2])c1; X24 = O=C([C@H](CNCc1ccc(B(O)O[*:3])c(F)c1)N[*:1])[*:2]; X5 = O=C([C@H](CNCc1ccc(Cl)c(B(O)O[*:3])c1)N[*:1])[*:2]; X8 = O=C([C@H](CNCc1ccc(B(O)O[*:3])cc1Cl)N[*:1])[*:2]; X2 = O=C([C@H](CNCc1ccc(B(O)O[*:3])cn1)N[*:1])[*:2]; X9 = O=C([C@H](CCNCc1ccc(B(O)O)cc1Cl)N[*:1])[*:2]; X17 = O=C([C@H](CCNCc1cccc(B(O)O)c1)N[*:1])[*:2]; Hyp = O=C(O)[C@@H]1C[C@@H](O)CN1; NMeNle = CCCC[C@H](NC)C(=O)O; NMeA = CN[C@@H](C)C(=O)O; Dab = NCC[C@H](N)C(=O)O

What follows are compounds tested against PD-1/PD-L1 (Homo sapiens (Human), UniProt Q9NZQ7) (assay: PD-1/PD-L1 Homogenous Time-Resolved Fluorescence (HTRF) binding assay). Settings: PD-L1-His 10 nM, PD-1-Ig 20 nM; read-out: HTRF IC50.
Source text: Methods for Testing the Ability of Macrocyclic Peptides to Compete for the Binding of PD-1 to PD-L1 Using Homogenous Time-Resolved Fluorescence (HTRF) Binding Assays
The ability of the compounds of formula (I) to bind to PD-L1 was investigated using a PD-1/PD-L1 Homogenous Time-Resolved Fluorescence (HTRF) binding assay.
Homogenous Time-Resolved Fluorescence (HTRF) Binding Assay
The interaction of PD-1 and PD-L1 can be assessed using soluble, purified preparations of the extracellular domains of the two proteins. The PD-1 and PD-L1 protein extracellular domains were expressed as fusion proteins with detection tags, for PD-1, the tag was the Fc portion of Immunoglobulin (PD-1-Ig) and for PD-L1 it was the 6 histidine motif (PD-L1-His). All binding studies were performed in an HTRF assay buffer consisting of dPBS supplemented with 0.1% […] bovine serum albumin and 0.05% (v/v) Tween-20. For the h/PD-L1-His binding assay, inhibitors were pre-incubated with PD-L1-His (10 nM final) for 15 m in 4 μl of assay buffer, followed by addition of PD-1-Ig (20 nM final) in 1 μl of assay buffer and further incubation for 15 m. HTRF detection was achieved using europium cryptate-labeled anti-Ig (1 nM final) and allophycocyanin (APC) labeled anti-His (20 nM final). Antibodies were diluted in HTRF detection buffer and 5 μl was dispensed on top of the binding reaction. The reaction mixture was allowed to equilibrate for 30 minutes and the resulting signal (665 nm/620 nm ratio) was obtained using an EnVision fluorometer. Additional binding assays were established between the human proteins PD-1-Ig/PD-L2-His (20 & 5 nM, respectively) and CD80-His/PD-L1-Ig (100 & 10 nM, respectively).
Recombinant Proteins: Human PD-1 (25-167) with a C-terminal human Fc domain of immunoglobulin G (Ig) epitope tag [hPD-1 (25-167)-3S-IG] and human PD-L1 (18-239) with a C-terminal His epitope tag [hPD-L1(18-239)-TVMV-His] were expressed in HEK293T cells and purified sequentially by ProteinA affinity chromatography and size exclusion chromatography. Human PD-L2-His and CD80-His was obtained through commercial sources.
Table 1 lists the IC50 values for representative examples of this disclosure measured in the PD-1/PD-L1 Homogenous Time-Resolved Fluorescence (HTRF) binding assay.

PD-1/PD-L1, sequence (Q9NZQ7 18-239): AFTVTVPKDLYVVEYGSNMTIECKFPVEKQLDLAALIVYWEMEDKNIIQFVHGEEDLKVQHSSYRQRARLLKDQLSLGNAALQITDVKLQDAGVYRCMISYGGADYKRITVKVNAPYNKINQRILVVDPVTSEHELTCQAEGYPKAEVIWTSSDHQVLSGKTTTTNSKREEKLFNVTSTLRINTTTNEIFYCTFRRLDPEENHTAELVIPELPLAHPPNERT

Structure (SMILES)	IC50
CCCC[C@H]1C(=O)N(C)[C@@H](CCCC)C(=O)N[C@@H](CC(C)C)C(=O)N[C@H](C(=O)NCC(N)=O)CSCC(=O)N[C@@H](Cc2ccc(O)cc2)C(=O)N(C)[C@@H](C)C(=O)N[C@@H](CC(N)=O)C(=O)N2CCC[C@H]2C(=O)N[C@H]2CNCc3ccc(cc3Cl)B(O)OC(=O)Cn3cc(c4ccccc43)C[C@H](NC(=O)[C@H](CCN)NC(=O)[C@H](Cc3c[nH]c4ccccc34)NC(=O)[C@@H]3C[C@@H](O)CN3C(=O)[C@H](CC(C)C)NC2=O)C(=O)N1C [Example 1020] ({CH2CO}-Y[NMeA]NP[X8]L[Hyp]W[Dab][Trp(1-CH2CO)][NMeNle][NMeNle]LCG-NH2; ester 5-10; thioether N-14)	14 nM
CCCC[C@H]1C(=O)N(C)[C@@H](CCCC)C(=O)N[C@@H](CC(C)C)C(=O)N[C@H](C(=O)NCC(N)=O)CSCC(=O)N[C@@H](Cc2ccc(O)cc2)C(=O)N(C)[C@@H](C)C(=O)N[C@@H](CC(N)=O)C(=O)N2CCC[C@H]2C(=O)N[C@H]2CNCc3cc(C)ccc3B(O)OC(=O)Cn3cc(c4ccccc43)C[C@H](NC(=O)[C@H](CCN)NC(=O)[C@H](Cc3c[nH]c4ccccc34)NC(=O)[C@@H]3C[C@@H](O)CN3C(=O)[C@H](CC(C)C)NC2=O)C(=O)N1C [Example 1016] ({CH2CO}-Y[NMeA]NP[X21]L[Hyp]W[Dab][Trp(1-CH2CO)][NMeNle][NMeNle]LCG-NH2; ester 5-10; thioether N-14)	8.3 nM
CCCC[C@H]1C(=O)N(C)[C@@H](CCCC)C(=O)N[C@@H](CC(C)C)C(=O)N[C@H](C(=O)NCC(N)=O)CSCC(=O)N[C@@H](Cc2ccc(O)cc2)C(=O)N(C)[C@@H](C)C(=O)N[C@@H](CC(N)=O)C(=O)N2CCC[C@H]2C(=O)N[C@H]2CNCc3cc(ccc3OCc3ccccc3)B(O)OC(=O)Cn3cc(c4ccccc43)C[C@H](NC(=O)[C@H](CCN)NC(=O)[C@H](Cc3c[nH]c4ccccc34)NC(=O)[C@@H]3C[C@@H](O)CN3C(=O)[C@H](CC(C)C)NC2=O)C(=O)N1C [Example 1019] ({CH2CO}-Y[NMeA]NP[X7]L[Hyp]W[Dab][Trp(1-CH2CO)][NMeNle][NMeNle]LCG-NH2; ester 5-10; thioether N-14)	4.8 nM
CCCC[C@H]1C(=O)N(C)[C@@H](CCCC)C(=O)N[C@@H](CC(C)C)C(=O)N[C@H](C(=O)NCC(N)=O)CSCC(=O)N[C@H]2Cc3ccc(cc3)OB(O)c3ccc(cc3F)CNCC[C@@H]3NC(=O)[C@H](Cc4c[nH]c5ccccc45)NC(=O)[C@@H]4C[C@@H](O)CN4C(=O)[C@H](CC(C)C)NC(=O)[C@H](CNCc4ccc(c(F)c4)B(O)OC(=O)Cn4cc(c5ccccc54)C[C@H](NC3=O)C(=O)N1C)NC(=O)[C@@H]1CCCN1C(=O)[C@H](CC(N)=O)NC(=O)[C@H](C)N(C)C2=O [Example 1026]	4 nM
CCCC[C@H]1C(=O)N(C)[C@@H](CCCC)C(=O)N[C@@H](CC(C)C)C(=O)N[C@H](C(=O)NCC(N)=O)CSCC(=O)N[C@@H](Cc2ccc(O)cc2)C(=O)N(C)[C@@H](C)C(=O)N[C@@H](CC(N)=O)C(=O)N2CCC[C@H]2C(=O)N[C@H]2CNCc3ccc(cn3)B(O)OC(=O)Cn3cc(c4ccccc43)C[C@H](NC(=O)[C@H](CCN)NC(=O)[C@H](Cc3c[nH]c4ccccc34)NC(=O)[C@@H]3C[C@@H](O)CN3C(=O)[C@H](CC(C)C)NC2=O)C(=O)N1C [Example 1010] ({CH2CO}-Y[NMeA]NP[X2]L[Hyp]W[Dab][Trp(1-CH2CO)][NMeNle][NMeNle]LCG-NH2; ester 5-10; thioether N-14)	8.6 nM
CCCC[C@H]1C(=O)N(C)[C@@H](CCCC)C(=O)N[C@@H](CC(C)C)C(=O)N[C@H](C(=O)NCC(N)=O)CSCC(=O)N[C@@H](Cc2ccc(O)cc2)C(=O)N(C)[C@@H](C)C(=O)N[C@@H](CC(N)=O)C(=O)N2CCC[C@H]2C(=O)N[C@H]2CNCc3ccc(c(F)c3)B(O)OC(=O)Cn3cc(c4ccccc43)C[C@H](NC(=O)[C@H](CCN)NC(=O)[C@H](Cc3c[nH]c4ccccc34)NC(=O)[C@@H]3C[C@@H](O)CN3C(=O)[C@H](CC(C)C)NC2=O)C(=O)N1C [Example 1009] ({CH2CO}-Y[NMeA]NP[X24]L[Hyp]W[Dab][Trp(1-CH2CO)][NMeNle][NMeNle]LCG-NH2; ester 5-10; thioether N-14)	2.6 nM
CCCC[C@H]1C(=O)N(C)[C@@H](CCCC)C(=O)N[C@@H](CC(C)C)C(=O)N[C@H](C(=O)NCC(N)=O)CSCC(=O)N[C@@H](Cc2ccc(O)cc2)C(=O)N(C)[C@@H](C)C(=O)N[C@@H](CC(N)=O)C(=O)N2CCC[C@H]2C(=O)N[C@H]2CNCc3c(ccc(Cl)c3F)B(O)OC(=O)Cn3cc(c4ccccc43)C[C@H](NC(=O)[C@H](CCN)NC(=O)[C@H](Cc3c[nH]c4ccccc34)NC(=O)[C@@H]3C[C@@H](O)CN3C(=O)[C@H](CC(C)C)NC2=O)C(=O)N1C [Example 1017] ({CH2CO}-Y[NMeA]NP[X22]L[Hyp]W[Dab][Trp(1-CH2CO)][NMeNle][NMeNle]LCG-NH2; ester 5-10; thioether N-14)	7.1 nM
CCCC[C@H]1C(=O)N(C)[C@@H](CCCC)C(=O)N[C@@H](CC(C)C)C(=O)N[C@H](C(=O)NCC(N)=O)CSCC(=O)N[C@H]2Cc3ccc(cc3)OB(O)c3cc(F)c(F)cc3CNCC[C@@H]3NC(=O)[C@H](Cc4c[nH]c5ccccc45)NC(=O)[C@@H]4C[C@@H](O)CN4C(=O)[C@H](CC(C)C)NC(=O)[C@H](CNCc4cc(F)c(F)cc4B(O)OC(=O)Cn4cc(c5ccccc54)C[C@H](NC3=O)C(=O)N1C)NC(=O)[C@@H]1CCCN1C(=O)[C@H](CC(N)=O)NC(=O)[C@H](C)N(C)C2=O [Example 1031]	10 nM
CCCC[C@H]1C(=O)N(C)[C@@H](CCCC)C(=O)N[C@@H](CC(C)C)C(=O)N[C@H](C(=O)NCC(N)=O)CSCC(=O)N[C@@H](Cc2ccc(O)cc2)C(=O)N(C)[C@@H](C)C(=O)N[C@@H](CC(N)=O)C(=O)N2CCC[C@H]2C(=O)N[C@H]2CNCc3ccc(Cl)c(c3)B(O)OC(=O)Cn3cc(c4ccccc43)C[C@H](NC(=O)[C@H](CCN)NC(=O)[C@H](Cc3c[nH]c4ccccc34)NC(=O)[C@@H]3C[C@@H](O)CN3C(=O)[C@H](CC(C)C)NC2=O)C(=O)N1C [Example 1011] ({CH2CO}-Y[NMeA]NP[X5]L[Hyp]W[Dab][Trp(1-CH2CO)][NMeNle][NMeNle]LCG-NH2; ester 5-10; thioether N-14)	6.4 nM
CCCC[C@H]1C(=O)N(C)[C@@H](CCCC)C(=O)N[C@@H](CC(C)C)C(=O)N[C@H](C(=O)NCC(N)=O)CSCC(=O)N[C@@H](Cc2ccc(O)cc2)C(=O)N(C)[C@@H](C)C(=O)N[C@@H](CC(N)=O)C(=O)N2CCC[C@H]2C(=O)N[C@H]2CNCc3ccc(cc3Cl)B(O)OC(=O)Cn3cc(c4ccccc43)C[C@H](NC(=O)[C@H](CCNCc3ccc(B(O)O)cc3Cl)NC(=O)[C@H](Cc3c[nH]c4ccccc34)NC(=O)[C@@H]3C[C@@H](O)CN3C(=O)[C@H](CC(C)C)NC2=O)C(=O)N1C [Example 1033] ({CH2CO}-Y[NMeA]NP[X8]L[Hyp]W[X9][Trp(1-CH2CO)][NMeNle][NMeNle]LCG-NH2; ester 5-10; thioether N-14)	9 nM
CCCC[C@H]1C(=O)N(C)[C@@H](CCCC)C(=O)N[C@@H](CC(C)C)C(=O)N[C@H](C(=O)NCC(N)=O)CSCC(=O)N[C@@H](Cc2ccc(O)cc2)C(=O)N(C)[C@@H](C)C(=O)N[C@@H](CC(N)=O)C(=O)N2CCC[C@H]2C(=O)N[C@H]2CN(Cc3cccc4ccc5ccccc5c34)Cc3cccc(c3)B(O)OC(=O)Cn3cc(c4ccccc43)C[C@H](NC(=O)[C@H](CCNCc3cccc(B(O)O)c3)NC(=O)[C@H](Cc3c[nH]c4ccccc34)NC(=O)[C@@H]3C[C@@H](O)CN3C(=O)[C@H](CC(C)C)NC2=O)C(=O)N1C [Example 1042] ({CH2CO}-Y[NMeA]NP[X16]L[Hyp]W[X17][Trp(1-CH2CO)][NMeNle][NMeNle]LCG-NH2; ester 5-10; thioether N-14)	94 nM
CCCC[C@H]1C(=O)N(C)[C@@H](CCCC)C(=O)N[C@@H](CC(C)C)C(=O)N[C@H](C(=O)NCC(N)=O)CSCC(=O)N[C@@H](Cc2ccc(O)cc2)C(=O)N(C)[C@@H](C)C(=O)N[C@@H](CC(N)=O)C(=O)N2CCC[C@H]2C(=O)N[C@H]2CNCc3ccc(cc3)B3OB(O3)c3ccc(cc3)CNCC[C@H](NC(=O)[C@H](Cc3c[nH]c4ccccc34)NC(=O)[C@@H]3C[C@@H](O)CN3C(=O)[C@H](CC(C)C)NC2=O)C(=O)N[C@@H](Cc2cn(CC(=O)O)c3ccccc23)C(=O)N1C [Example 1004]	6.3 nM
